Results on one molecule are retold here after ChEMBL document CHEMBL5528047, “A Potent SOS1 PROTAC Degrader with Synergistic Efficacy in Combination with KRASG12C Inhibitor” (J Med Chem, 2024).

The source made the active and inactive calls. The rule behind the calls is not given here. Where only a bound is given, the exact number is not on record here.

Data set [1] concerns the target T1, von Hippel-Lindau disease tumor suppressor/Son of sevenless homolog 1 (Homo sapiens, UniProt Q07889+P40337). Put plainly: Protac activity at VHL/SOS1 in human MIA PaCa-2 cells assessed as SOS1 degradation incubated for 24 hrs by Western blotting analysis. The class given is cell-based. (A western blot detects proteins with antibodies after separation by electrophoresis.)

The target of data set [2] is T1, von Hippel-Lindau disease tumor suppressor/Son of sevenless homolog 1. Description: Protac activity at VHL/SOS1 in human NCI-H358 cells assessed as SOS1 degradation incubated for 24 hrs by Western blotting analysis. Format: cell-based.
Data set [3] has the same target. Put plainly: Protac activity at VHL/SOS1 in human PANC-1 cells assessed as maximum SOS1 degradation at 0.003 to 10 uM incubated for 24 hrs by Western blotting analysis. Format: cell-based. Particulars: dose 0.003-10 µM.
Target sequence in this assay (P40337 whole entry, looked up, one chain of several): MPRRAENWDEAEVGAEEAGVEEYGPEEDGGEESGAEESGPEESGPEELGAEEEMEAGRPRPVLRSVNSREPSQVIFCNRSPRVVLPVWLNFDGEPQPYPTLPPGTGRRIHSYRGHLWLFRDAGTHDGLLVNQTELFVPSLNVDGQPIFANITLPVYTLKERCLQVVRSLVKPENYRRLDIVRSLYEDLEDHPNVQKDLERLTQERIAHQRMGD
For data set [4] the target is unchanged. Description: Protac activity at VHL/SOS1 in human PANC-1 cells assessed as SOS1 degradation at 1 uM incubated for 96 hrs by Western blotting analysis. Format: cell-based.
Target sequence in this assay (P40337 whole entry, looked up, one chain of several): as above
The target is the same in data set [5]. Put plainly: Protac activity at VHL/SOS1 in human K562 cells assessed as SOS1 degradation at 1 uM preincubated with MLN4924 for 2 hrs followed by compound addition and measured after 2 hrs by Western blotting analysis. Format: cell-based.
Target sequence in this assay (P40337 whole entry, looked up, one chain of several): as above
Data set [6] concerns the target T2, Son of sevenless homolog 1 (Homo sapiens) (UniProt Q07889).
T2 sequence (whole entry): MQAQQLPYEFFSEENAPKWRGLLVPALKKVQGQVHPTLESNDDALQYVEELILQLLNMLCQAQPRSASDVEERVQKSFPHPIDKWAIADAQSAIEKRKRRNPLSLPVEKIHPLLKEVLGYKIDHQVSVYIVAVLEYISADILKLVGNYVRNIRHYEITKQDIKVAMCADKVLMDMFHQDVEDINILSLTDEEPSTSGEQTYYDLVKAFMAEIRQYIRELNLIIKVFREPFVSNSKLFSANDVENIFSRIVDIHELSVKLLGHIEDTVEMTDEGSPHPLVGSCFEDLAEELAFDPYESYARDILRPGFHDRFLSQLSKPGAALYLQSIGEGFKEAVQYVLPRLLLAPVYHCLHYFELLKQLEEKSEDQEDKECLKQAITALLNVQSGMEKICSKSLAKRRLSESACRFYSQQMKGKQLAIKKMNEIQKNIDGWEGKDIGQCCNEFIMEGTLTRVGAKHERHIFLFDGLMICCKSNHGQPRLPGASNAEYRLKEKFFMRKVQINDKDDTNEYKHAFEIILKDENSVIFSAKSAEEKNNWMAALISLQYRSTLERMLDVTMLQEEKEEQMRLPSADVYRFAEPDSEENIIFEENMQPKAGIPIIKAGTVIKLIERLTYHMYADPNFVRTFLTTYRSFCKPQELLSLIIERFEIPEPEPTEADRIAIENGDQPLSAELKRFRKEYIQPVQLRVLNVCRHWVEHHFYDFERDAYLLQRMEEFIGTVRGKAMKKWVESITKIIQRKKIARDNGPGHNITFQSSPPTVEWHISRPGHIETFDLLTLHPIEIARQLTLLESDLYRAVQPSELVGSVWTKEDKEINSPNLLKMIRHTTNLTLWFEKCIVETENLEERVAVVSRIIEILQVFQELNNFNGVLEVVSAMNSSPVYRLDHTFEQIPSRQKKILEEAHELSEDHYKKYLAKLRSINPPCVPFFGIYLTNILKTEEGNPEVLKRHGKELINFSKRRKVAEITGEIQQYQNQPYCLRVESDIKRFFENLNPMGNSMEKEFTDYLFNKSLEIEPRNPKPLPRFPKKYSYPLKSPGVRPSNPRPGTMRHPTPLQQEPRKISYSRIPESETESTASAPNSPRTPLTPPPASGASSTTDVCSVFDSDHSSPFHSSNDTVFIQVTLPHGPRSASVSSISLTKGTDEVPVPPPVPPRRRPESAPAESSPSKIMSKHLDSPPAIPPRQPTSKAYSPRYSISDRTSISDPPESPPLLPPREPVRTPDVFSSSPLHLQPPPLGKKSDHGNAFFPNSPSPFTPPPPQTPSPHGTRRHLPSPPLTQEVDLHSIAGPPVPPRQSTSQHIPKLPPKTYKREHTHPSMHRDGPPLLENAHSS
Description: Induction of SOS1 degradation in human MIA PaCa-2 cells at 1 uM after 24 hrs by MS analysis. Format: cell-based.

The test system of data set [7] is K562. Put plainly: Downregulation of phosphorylated-MEK level in human K562 cells at 0.3 to 3 uM incubated for 24 hrs by Western blotting analysis. Format: functional, cell-based. As to conditions: dose 0.3-3 µM.
Data set [8] deals with K562. Description: Effect on total MEK level in human K562 cells at 0.3 to 3 uM incubated for 24 hrs by Western blotting analysis. The class given is functional, cell-based. As to conditions: dose 0.3-3 µM.
Data set [9] relates to NCI-H358. Description: Inhibition of colony formation in human NCI-H358 cells at 1 to 9 uM incubated for 10 days by crystal violet staining based assay. The class given is functional, cell-based. As to conditions: dose 1-9 µM, time 10.0 day.
Data set [10] can be described thus: AUC(0 to infinity) in ICR mouse at 10 mg/kg, po measured upto 24 hrs by LC-MS/MS analysis. The class given is ADME, organism-based. Particulars: in vivo.
Data set [11] deals with K562. Put plainly: Antitumor activity against human K562 cells xenografted in NOD-SCID mouse assessed as tumor growth inhibition at 25 mg/kg, ip administered as 5 days on and 2 days off schedule for 21 days. The class given is functional. Particulars: K562, 120 h, time 5 day, read-out: TGI.
A short description of data set [12]: Toxicity in NOD-SCID mouse assessed as body weight loss at 5 to 25 mg/kg, ip administered as 5 days on and 2 days off schedule for 21 days. The class given is organism-based. As to conditions: in vivo, 120 h, dose 5-25 mg/kg, time 5 day.
The subject of another data set is Mus musculus. Put plainly: In vivo induction of SOS1 degradation in human K562 cells xenografted in NOD-SCID mouse assessed as reduction in SOS1 level at 25 mg/kg, ip measured after 24 hrs by immunoblotting analysis. Format: functional, organism-based. For orientation: In xenograft studies the graft and the host belong to different species.
Data set [13] deals with NCI-H358. Description: Inhibition of ERK phosphorylation in human NCI-H358 cells at 1 uM measured after 24 to 72 hrs in presence of AMG510 by Western blotting analysis. Format: cell-based. As to conditions: time 24-72 hrs.
Data set [14] concerns NCI-H358. Description: Antiproliferative activity against human NCI-H358 cells incubated for 6 days by CCK8 assay. As to conditions: NCI-H358, 144 h. Format: functional, cell-based. (Tetrazolium dyes change colour on reduction, which living cells bring about.)
In data set [15] the test system is MIA PaCa-2. Put plainly: Antiproliferative activity against human MIA PaCa-2 cells incubated for 6 days by CCK8 assay. Format: functional, cell-based. Particulars: MIA PaCa-2, 144 h.
The next data set deals with SW837. Put plainly: Antiproliferative activity against human SW837 cells incubated for 6 days by CCK8 assay. Format: functional, cell-based. Particulars: SW837, 144 h.
Data set [16] deals with NCI-H358. Put plainly: Synergistic antiproliferative activity against human NCI-H358 cells assessed as combination index incubated for 5 days in presence of 4-((S)-4-acryloyl-2-methylpiperazin-1-yl)-6-fluoro-7-(2-fluoro-6-hydroxyphenyl)-1-(2-isopropyl-4-methylpyridin-3-yl)pyrido[2,3-d]pyrimidin-2(1H)-one. Format: functional. As to conditions: time 5 day.
For data set [17], the system named is MIA PaCa-2. Put plainly: Induction of apoptosis in human MIA PaCa-2 cells assessed as increase in cleaved PARP-1 level incubated for 24 hrs in presence of 4-((S)-4-acryloyl-2-methylpiperazin-1-yl)-6-fluoro-7-(2-fluoro-6-hydroxyphenyl)-1-(2-isopropyl-4-methylpyridin-3-yl)pyrido[2,3-d]pyrimidin-2(1H)-one by Western blotting assay. The class given is functional, cell-based.

Usually DC50 stands for the midpoint of the concentration-degradation curve. As a reminder, the Emax is the size of the effect at its maximum, as opposed to the concentration needed. Usually AUC(0-inf) stands for total exposure, with the tail of the curve extrapolated. The term IC50 denotes the midpoint of a concentration-inhibition curve. A high value points to weaker potency in that assay. Turning to `COc1cc2nc(C)nc(N[C@H](C)c3cc(N)cc(C(F)(F)F)c3)c2cc1OCCCCC(=O)N[C@H](C(=O)N1C[C@H](O)C[C@H]1C(=O)NCc1ccc(-c2scnc2C)cc1)C(C)(C)C`, the Activity entry is “Dose-Dependent Effect” in data set [1], “Dose-Dependent Effect” in data set [2] and “Non-Toxic” in [12]. Further, the DC50 came out at 61 nM in data set [1] and 50 nM in data set [2]. Besides, the Emax in [3] was over 90%. Moreover, the outcome (in data set [4]; in data set [6]; in the data set with K562 [7]; in the data set on Mus musculus; in the data set with MIA PaCa-2 [17]) was Active. The result (in [5]; with K562 [8]) was inactive. Moreover, the inhibition entry in the data set on NCI-H358 [9] and in the data set with NCI-H358 [13] was “Active” throughout. In data set [10], the AUC(0-inf) came out at 4280 ng·h/mL. Moreover, in the data set on K562 [11], the inhibition in vivo at 25 mg/kg came out at 72.3%. In addition, the IC50 in the data set on NCI-H358 [14] stood at 2450 nM; in the data set on MIA PaCa-2 [15], 3480 nM; in the data set with SW837 it was 1040 nM. Besides, the CI with NCI-H358 [16] is reported as under 1.
